Experimental data: patent US8889411B2, “Modulation of stem and progenitor cell differentiation, assays, and uses thereof” (Anthrogenesis Corporation, priority 2002, dated 2014)

Key:
[1] = test system: Bone marrow and cord blood CD34+ progenitor cells; assay: Differentiation of CD34+ progenitor cells into dendritic cells, cell surface phenotype by flow cytometry; type: cell-based, human; parameters: key to Cell Population CD15+ / Cell Population CD34+ CD38− / Cell Population CD34− CD38+ / Cell Population CD1a+ CD14− / Cell Population CD1a− CD14+: ↑: up arrow indicates an increase in the cell population; ↓: down arrow indicates a decrease; settings: day 6; SCF, Flt-3L, GM-CSF and TNF-α; versus DMSO-treated control
Protocol: Bone marrow and cord blood CD34^+ progenitor cells were obtained from Clonetics and cultured in Iscove's MDM with BIT 95000 (StemCell Technologies) in the presence of SCF, Flt-3L, GM-CSF and TNF-α for 6 days, and then in the presence of GM-CSF and TNF-α for 6 additional days.
Analysis of cell surface phenotype: Cells were processed for double staining (30 min at 4° C.) at day 6 and day 12 using FITC and PE conjugated mAbs. Antibodies used were from BD Pharmingen: CD34 (PE), CD38 (FITC), CD33 (FITC), CD1a (FITC), CD86 (PE), CD14 (PE), CD83 (PE), CD54 (PE), CD11b (PE), CD11c (PE), HLA-DR (PE), CD15 (FITC), and CD133 (PE) from Miltenyi. Fluorescence analysis was performed on a FACScan flow cytometer after acquisition of 10,000 events (Coulter). Results presented are representative of four independent experiments.
The methodology described above, i.e., the examination of the effect of IMiDs such as ACTIMID™ on the differentiation on early progenitor cells, such as CD34^+ cells, can be applied to any compound of interest, the effect of which on differentiation is desired to be known. As an example of the extension of this assay method to other compounds, we compared the effect of retinoic acid (ATRA) and aspirin to that of ACTIMID™ on the differentiation of CD34^+ cells toward the DC lineage versus the control (DMSO-treated) cells. Retinoic acid was studied because of its known effect on cellular proliferation and differentiation, its therapeutic use in some cancer, and its known teratogenic effect. Conversely, we studied the effect of aspirin because it is a commonly-used anti-inflammatory drug with no immunomodulatory properties. The results at day 6 of CD34^+ progenitors cells cultured in the presence of SCF, Flt-3L, GM-CSF and TNF-α, with or without compound for a period of 6 days, are presented below in Table 2 (up arrow indicates an increase in the cell population; down arrow indicates a decrease).

[2] = test system: Murine Sca+Lin− hematopoietic progenitor cells; assay: Generation of murine dendritic cells from bone marrow Sca+Lin− progenitors, cell surface phenotype; type: cell-based, mouse (C57BL/6)
Text: Mouse bone marrow from inbred C57BL/6 mice was obtained from Clonetics. Hematopoietic Sca+Lin− progenitors were enriched using SpinSep murine progenitor enrichment cocktail (StemCell Technologies) and cultured in Iscove's MDM with BIT 95000 (StemCell Technologies) in the presence of murine growth factors SCF, Flt3L, GM-CSF and M-CSF for 9 days, to promote expansion of Sca+ cells and a DC precursor phenotype and then in the presence of GM-CSF and TNF-α for 3 additional days to drive the cells to an immature DC phenotype. Enriched Sca+Lin− cells were cultured in the presence of DMSO (0.1%), ACTIMID™ at 10 μM or all-trans retinoic acid (ATRA) (ICN Biomedicals) at 10 μM from day 0. Compounds were added to cells at day 0 and day 9.
Analysis of Murine cell surface phenotype: Murine cells were processed for double staining (14 min at RT) at day 9 and day 12; using FITC and PE conjugated mAbs. Antibodies used were from BD Pharmingen: Sea (PE), CD11b (FITC), Gr-1 (FITC), CD86 (PE), CD14 (PE), CD80 (PE), I-A^b (PE), CD40 (PE) and CD32.1/16.1 (FITC) from Miltenyi. Fluorescence analysis was performed on a FACScan flow cytometer (Coulter) after acquisition of 10,000 events.

[3] = test system: Purified human cord blood CD34+ cells; assay: Monocyte production: CD34/CD14 staining of cord blood CD34+ cells cultured 14 days with cytokines; type: cell-based; settings: 14 days
Protocol: Purified human cord blood CD34+ cells (greater than 90% CD34+) were cultured in 20% FCS IMDM medium supplemented with cytokines (IL3, IL6, G-CSF, KL and Epo) at 4×10^4 cells/ml for 14 days at 37° C. in a humidified 5% CO2 incubator. The experimental groups consisted of a group in which (i) no DMSO or chemical compounds were added (“None”), (ii) DMSO only, (iii) Thalidomide dissolved in DMSO, (iv) ACTIMID™ dissolved in DMSO, and (v) REVIMID™ dissolved in DMSO. Aliquots of cells were harvested and stained with CD34-PE conjugated monoclonal antibody and CD14-FITC conjugated monoclonal antibody.

[4] = test system: Human Cord Blood CD34+ Cells; assay: FACS analysis of proliferation and differentiation of cord blood CD34+ cells cultured with IL3, G-CSF and Kit-ligand; type: cell-based; settings: for CD11b+ Cell Population / CD34+CD38+ Cell Population / CD34+CD38− Cell Population: 7 days
Protocol: CB CD34+ cells were initiated at 4×10^4 cells/ml in a 24-well plate in 20% FCS IMDM (fetal calf serum/Iscove's Modified Dulbecco's Medium) supplemented with cytokines (1 L3, GCSF and Kit-ligand) (R&D Systems, Inc.). Thalidomide (Thal), ACTIMID™ or REVIMID™ were included in the culture at three different concentrations: 5 μg/ml, 1 μg/ml and 0.3 μg/ml. The same volumes of DMSO were used as controls. A negative control without, any compound was also used (indicated by “none” in FIGS. 3-7). Cells were cultured at 37° C. and 5% CO2 in a humidified incubator for 7 days. Cells were then harvested from each well.
The total cell number from each well was determined by counting in a CELL-DYN® 1700 (Abbott Diagnostics) and the expression of CXCR4, CD45, CD34, CD38, CD 1 lb and Gly-A expression was analyzed by FACS (fluorescence-activated cell sorting) staining (FIGS. 3-7).
CB cells from two different donors (CB2276 and CB2417) were cultured, assayed and analyzed separately (Table 1).

With `CC1=C(/C=C/C(C)=C/C=C/C(C)=C/C(=O)O)C(C)(C)CCC1` [All-trans RA, all-trans retinoic acid, reference compound] the “Cell Population CD1a+ CD14−” value [1] was “↓”, the “Cell Population CD1a− CD14+” value [1] was “↓” and the “Cell Population CD15+” value [1] was “↑”. For the same molecule, the “Cell Population CD34+ CD38−” value [1] was “↓”, the “Cell Population CD34− CD38+” value [1] was “↑” and the “CD80, I-A^b and Sca+ expression by day 9” value ([2]; 10 μM from day 0, data not shown) was “marked downregulation”. The “expression of CD40 and CD80” value ([2]; 10 μM, not shown) was “marked downregulation”.

For `CC(=O)Oc1ccccc1C(=O)O` [Aspirin, acetylsalicylic acid, reference compound], the “Cell Population CD1a+ CD14−” value [1] was “No change”, the “Cell Population CD1a− CD14+” value [1] was “No change” and the “Cell Population CD15+” value [1] was “No change”. For the same molecule, the “Cell Population CD34+ CD38−” value [1] was “No change” and the “Cell Population CD34− CD38+” value [1] was “No change”.

For `O=C1CCC(N2C(=O)c3ccccc3C2=O)C(=O)N1` (stereo not drawn) [Thalidomide, reference compound], the “percentage of CD34+ cells of the total cells” value ([3]; IL3, IL6, G-CSF, KL and Epo, compound dissolved in DMSO) was 0.24%, the “production of monocytes (CD14+ cells)” value ([3]; relative to DMSO-treated group) was “similar” and the “expression of CXCR4” value ([4]; FACS analysis of surface proteins) was “not”. For the same molecule, the yield of cells ([4]; IL-3, KL and G-CSF, compared with the DMSO control) was “slightly higher number of cells”, the “effect on the proliferation of CD34+ cells” value ([4]; IL-3, KL and G-CSF, compared with the negative control (none)) was “do not have a significant effect” and the “CD11b+ Cell Population” value ([4]; donor CB2276, 0.3 μg/ml) was 7.6%. For the same molecule, the “CD34+CD38+ Cell Population” value ([4]; donor CB2276, 0.3 μg/ml) was 15.1, the “CD34+CD38− Cell Population” value ([4]; donor CB2276, 0.3 μg/ml) was 3.2 and the “CD11b+ Cell Population” value ([4]; donor CB2276, 1 μg/ml) was 6.2%. The “CD34+CD38+ Cell Population” value ([4]; donor CB2276, 1 μg/ml) was 3.8, the “CD34+CD38− Cell Population” value ([4]; donor CB2276, 1 μg/ml) was 1.0 and the “CD11b+ Cell Population” value ([4]; donor CB2276, 5 μg/ml) was 8.1%. The “CD34+CD38+ Cell Population” value ([4]; donor CB2276, 5 μg/ml) was 6.5, the “CD34+CD38− Cell Population” value ([4]; donor CB2276, 5 μg/ml) was 3.5 and the “CD11b+ Cell Population” value ([4]; donor CB2417, 0.3 μg/ml) was 7.8%. For the same molecule, the “CD34+CD38+ Cell Population” value ([4]; donor CB2417, 0.3 μg/ml) was 5.0, the “CD34+CD38− Cell Population” value ([4]; donor CB2417, 0.3 μg/ml) was 0.8 and the “CD11b+ Cell Population” value ([4]; donor CB2417, 1 μg/ml) was 5.2%. The “CD34+CD38+ Cell Population” value ([4]; donor CB2417, 1 μg/ml) was 3.8, the “CD34+CD38− Cell Population” value ([4]; donor CB2417, 1 μg/ml) was 1.0 and the “CD11b+ Cell Population” value ([4]; donor CB2417, 5 μg/ml) was 6.5%. The “CD34+CD38+ Cell Population” value ([4]; donor CB2417, 5 μg/ml) was 3.0, the “CD34+CD38− Cell Population” value ([4]; donor CB2417, 5 μg/ml) was 1.1 and the “CD38 status of the majority of CD34+ and CD34− cells” value ([4]; treated cell populations) was “mainly CD38+”.
